Assay results: patent publication US4952580A, “Pesticidal polyhaloalkene derivatives” (priority 1988, dated 1990)
Like-named read-outs stand apart in the source and are kept apart here.

How the values were obtained:
[1] = test system: root-knot nematode (Meloidogyne incognita); experiment: Initial Root-Knot Nematicidal Activity; assay type: in vivo; details: 336 h, read-out: Percent Control; for pest or weed control at 0.313 ppm: Table 2, Application Rate 0.313 ppm; for pest or weed control at 0.625 ppm: Table 2, Application Rate 0.625 ppm; for pest or weed control at 1.25 ppm: Table 2, Application Rate 1.25 ppm; for pest or weed control at 0.312 ppm: Table 2, Application Rate 0.312 ppm; for pest or weed control at 0.078 ppm: Table 2, Application Rate 0.078 ppm; for pest or weed control at 0.156 ppm: Table 2, Application Rate 0.156 ppm
Experimental: (§1) Compounds of this invention were tested as follows for nematicidal and anthelmintic activity as dust formulations (initial and residual activity) and as acetone/water formulations (systemic activity). The formulations are described above.
The activity against root-knot nematode (Meloidogyne incognita) was determined by incorporating the compound of the invention in nematode infested soil at rates in the range of 10 ppm to 0.078 ppm of compound. Several tomato or cucumber seedlings were planted in the nematode infested soil. Two weeks after planting the test pots were evaluated to ascertain the degree of galling (swelling) on the roots of the plants, indicating the control provided by the test chemical.
The results expressed as precent control (determined by knot index) are set forth as averages in Table 2 (appended). Knot index is a numerical designation assigned at evaluation, having the following meanings:
Percent control is related to knot index as follows:
When the Knot Index is between 0 and 1 it is further subdivided as follows to indicate how close the percent control is to 75% or 100%: […]

[2] = test system: root-knot nematode; experiment: Soil Mobility against root-knot nematode; assay type: in vivo, Meloidogyne incognita; details: 336 h, Table 7a, 5% dust, 5 ppm, read-out: Percent Control
Experimental: as §1
The ability of nematicidal compounds of the invention to move through nematode-infested soil […] infested soil, and subsequently eluting the soil with 15 cm of water (equivalent to 15 cm of rainfall) into a series of two or more pots of untreated, but nematode-infested, soil. Specifically, the pots were 8 cm diameter plastic pots containing a 10 cm^3 layer of sand over a coarse grade filter paper disc. Sufficient soil was placed over the sand to fill the pots, and a second filter paper disc was placed over the soil. Each test compound-treated pot was nested over a series of two or more pots containing untreated, but nematode-infested soil, also containing sand filter paper discs as described for the treated soil pots. Fifteen cm of water was slowly dripped into the top pots and the pots were allowed to drain for 16-18 hours to remove excess water. The top filter of each pot was then removed and the pots were planted with a cucumber or tomato seedling. […] "Knot Index" and "Percent Control" are as defined in the initial root-knot nematode tests above.

[3] = test system: lesion nematode; experiment: Lesion Nematode Test; assay type: in vivo; details: read-out: Percent Control
Experimental: as §1
The procedure was substantially the same as in the stunt nematode test described above except that pea seedlings were used. The results (Table 5 appended) show good control with many of the compounds at the application rates tested as compared with untreated samples (no control). "Percent Control" is defined as follows: [formula]

[4] = test system: Caenorhabditis elegans; experiment: C. Elegans Nematode Screening Test and Evaluation (in-vitro); details: for inhibition at 5 ppm / mortality at 5 ppm / inhibition at 1.25 ppm / mortality at 1.25 ppm / inhibition at 2.5 ppm / mortality at 2.5 ppm: Caenorhabditis elegans; for inhibition at 5 ppm / inhibition at 1.25 ppm / inhibition at 2.5 ppm: read-out: Percent Inhibition of Reproduction; for mortality at 5 ppm / mortality at 1.25 ppm / mortality at 2.5 ppm: read-out: Percent Mortality
Experimental: This in-vitro test using the free-living nematode Caenorhabditis elegans, is a modification of the assay developed by Simpkin and Coles, J. Chem. Tech. […] One milliliter of a test medium consisting of 5 mg ampicillin, 10,000 units of mycostatin and 10 ml of a dense suspension of Escherichia coli per 100 ml of a buffer solution, was pipetted into each well of a 24-well microtiter plate. The candidate nematicide, suspended at the appropriate concentration in dimethylsulfoxide, was added to the wells in […] volumes. Each rate of application was replicated two to three times. After thorough mixing of the contents of each well, 50 to 100 μl of a nematode suspension in a buffer was added so that each well received 10-15 nematodes. After the nematodes were added, the microtiter plates were incubated at 20° C. for 5-6 days.
The effect of the candidate nematicide on the survival and the reproduction of C. elegans was then evaluated by comparison of the level of population developed in the treated wells with that in untreated wells. Specific effects on population development, such as reduced egg hatch or molting disruption, were noted if they were evident.

[5] = Table 2, Application Rate 2.5 ppm
[6] = Table 2, Application Rate 5.0 ppm
[7] = Table 2, Application Rate 10.0 ppm

## O=C1c2ccccc2S(=O)(=O)N1CCC(F)=C(F)F [Compound 24, N-(3,4,4-trifluoro-3-butenyl)saccharine]
[1]; [5]
  pest or weed control at 2.5 ppm: 19%
[1]; [6]
  pest or weed control at 5 ppm: 63%
[1]; [7]
  pest or weed control at 10 ppm: 78%

## O=C(OCCC(F)=C(F)F)c1ccc(Cl)cc1 [Compound 4, (3,4,4-trifluoro-3-butenyl) 4-chlorobenzoate]
[1]
  pest or weed control at 0.313 ppm: 38%
  pest or weed control at 0.625 ppm: 44%
  pest or weed control at 1.25 ppm: 56%
[1]; [5]
  pest or weed control at 2.5 ppm: 99%

## FC(F)=C(F)CCSc1nc(Cc2ccc(F)cc2)no1 [Compound 38, 3-(4-fluorophenylmethyl)-5-(3,4,4-trifluoro-3-butenylthio)-1,2,4-oxadiazole]
[1]
  pest or weed control at 0.312 ppm: 63%
  pest or weed control at 0.625 ppm: 76%
  pest or weed control at 1.25 ppm: 96%
[1]; [5]
  pest or weed control at 2.5 ppm: 98%
[2]; BOTTOM container
  pest or weed control at 5 ppm: 0%
[2]; MIDDLE container
  pest or weed control at 5 ppm: 0%
[2]; TOP container
  pest or weed control at 5 ppm: 0%

## O=C(OCCC(F)=C(F)F)c1cccs1 [Compound 20]
[1]
  pest or weed control at 0.313 ppm: 0%
  pest or weed control at 0.625 ppm: 6%
  pest or weed control at 1.25 ppm: 63%
[1]; [5]
  pest or weed control at 2.5 ppm: 98%

## O=C(OCCC(F)=C(F)F)c1ccc[nH]1 [Compound 22, (3,4,4-trifluoro-3-butenyl) 2-pyrrolecarboxylate]
[1]
  pest or weed control at 0.313 ppm: 0%
  pest or weed control at 0.625 ppm: 0%
  pest or weed control at 1.25 ppm: 44%
[1]; [5]
  pest or weed control at 2.5 ppm: 96%

## FC(F)=C(F)CCSCc1cc2ccccc2s1 [Compound 11, 2-(3,4,4-trifluoro-3-butenylthiomethyl)-thianaphthene]
[1]
  pest or weed control at 0.625 ppm: 0%
  pest or weed control at 1.25 ppm: 67%
[1]; [5]
  pest or weed control at 2.5 ppm: 78%
[1]; [6]
  pest or weed control at 5 ppm: 83%

## FC(F)=C(F)CCSc1cccs1 [Compound 10, 2-(3,4,4-trifluoro-3-butenylthio)thiopene]
[1]
  pest or weed control at 0.625 ppm: 63%
  pest or weed control at 1.25 ppm: 81%
  pest or weed control at 2.5 ppm: 95%
[1]; [6]
  pest or weed control at 5 ppm: 99%
[3]
  pest or weed control at 2.5 ppm: 33%

## O=C(OCCC(F)=C(F)F)C(F)(F)C(F)(F)C(F)(F)F [Compound 3, (3,4,4-trifluoro-3-butenyl) heptafluorobutyrate]
[1]
  pest or weed control at 2.5 ppm: 71%
  pest or weed control at 5 ppm: 83%
  pest or weed control at 10 ppm: 95%

## O=C(CSC1=NCCS1)OCCC(F)=C(F)F [Compound 23, (3,4,4-trifluoro-3-butenyl) [2-(4,5-dihydrothiazolyl)thio]acetate]
[1]; [5]
  pest or weed control at 2.5 ppm: 76%
[1]; [6]
  pest or weed control at 5 ppm: 84%
[1]; [7]
  pest or weed control at 10 ppm: 96%

## O=[N+]([O-])c1ccc(CSc2nsc(SCCC(F)=C(F)F)n2)cc1 [Compound 26, 3-(4-nitrophenylmethylthio)-5-(3,4,4-trifluoro-3-butenylthio)-1,2,4-thiadiazole]
[1]
  pest or weed control at 0.312 ppm: 0%
  pest or weed control at 0.625 ppm: 0%
  pest or weed control at 1.25 ppm: 63%
[1]; [5]
  pest or weed control at 2.5 ppm: 86%
[4]; Table 9 screen, 5 ppm
  inhibition at 5 ppm: 100%
  mortality at 5 ppm: 100%
[4]; Table 10 evaluation, 5 ppm
  mortality at 5 ppm: 100%
[4]; Table 10 evaluation, 1.25 ppm
  inhibition at 1.25 ppm: 100%
  mortality at 1.25 ppm: 100%
[4]; Table 10 evaluation, 2.5 ppm
  inhibition at 2.5 ppm: 100%
  mortality at 2.5 ppm: 100%

## FC(F)=C(F)CCSc1nc(-c2ccc(Cl)cc2)no1 [Compound 39, 3-(4-chlorophenyl)-5-(3,4,4-trifluoro-3-butenylthio)-1,2,4-oxadiazole]
[1]
  pest or weed control at 0.312 ppm: 19%
  pest or weed control at 0.625 ppm: 84%
  pest or weed control at 1.25 ppm: 98%
[1]; [5]
  pest or weed control at 2.5 ppm: 100%
[4]; Table 9 screen, 5 ppm
  inhibition at 5 ppm: 100%
  mortality at 5 ppm: 100%
[4]; Table 10 evaluation, 5 ppm
  mortality at 5 ppm: 100%
  Percent Mortality: 100%
[4]; Table 10 evaluation, 1.25 ppm
  inhibition at 1.25 ppm: 100%
  mortality at 1.25 ppm: 67%
  Percent Mortality: 58%
[4]; Table 10 evaluation, 2.5 ppm
  inhibition at 2.5 ppm: 100%
  mortality at 2.5 ppm: 100%
  Percent Mortality: 100%

## O=[N+]([O-])c1ccc(-c2noc(SCCC(F)=C(F)F)n2)cc1 [Compound 40, 3-(4-nitrophenyl)-5-(3,4,4-trifluoro-3-butenylthio)-1,2,4-oxadiazole]
[1]
  pest or weed control at 0.312 ppm: 0%
  pest or weed control at 0.625 ppm: 56%
  pest or weed control at 1.25 ppm: 84%
[1]; [5]
  pest or weed control at 2.5 ppm: 99%
[4]; Table 10 evaluation, 5 ppm
  inhibition at 5 ppm: 100%
  mortality at 5 ppm: 100%
[4]; Table 10 evaluation, 1.25 ppm
  inhibition at 1.25 ppm: 100%
  mortality at 1.25 ppm: 100%
[4]; Table 10 evaluation, 2.5 ppm
  inhibition at 2.5 ppm: 100%
  mortality at 2.5 ppm: 100%

## O=C1CCC(=O)N1CCC(F)=C(F)F [Compound 5, N-(3,4,4-trifluoro-3-butenyl)succinimide]
[1]
  pest or weed control at 0.313 ppm: 0%
  pest or weed control at 0.625 ppm: 6%
  pest or weed control at 1.25 ppm: 70%
[1]; [5]
  pest or weed control at 2.5 ppm: 81%

## C#CCSc1nnc(SCCC(F)=C(F)F)s1 [Compound 14, 2-propargylthio-5-(3,4,4-trifluoro-3-butenylthio)-1,3,4-thiadiazole]
[1]
  pest or weed control at 0.313 ppm: 0%
  pest or weed control at 0.625 ppm: 0%
  pest or weed control at 1.25 ppm: 25%
[1]; [5]
  pest or weed control at 2.5 ppm: 83%

## FC(F)=C(F)CCSc1nnc(SCc2ccccc2F)s1 [Compound 34, 2-(2-fluorophenylmethylthio)-5-(3,4,4-trifluoro-3-butenylthio)-1,3,4-thiadiazole]
[1]
  pest or weed control at 0.078 ppm: 38%
  pest or weed control at 0.156 ppm: 64%
  pest or weed control at 0.312 ppm: 86%
  pest or weed control at 0.625 ppm: 99%
  pest or weed control at 1.25 ppm: 99%
[1]; [5]
  pest or weed control at 2.5 ppm: 100%
[3]; Table 5, rate 2.5 ppm
  pest or weed control at 2.5 ppm: 52%
[2]; BOTTOM container
  pest or weed control at 5 ppm: 8%
[2]; MIDDLE container
  pest or weed control at 5 ppm: 67%
[2]; TOP container
  pest or weed control at 5 ppm: 98%
[4]; Table 9 screen, 5 ppm
  inhibition at 5 ppm: 100%
  mortality at 5 ppm: 25%
[4]; Table 10 evaluation, 5 ppm
  mortality at 5 ppm: 100%
[4]; Table 10 evaluation, 1.25 ppm
  inhibition at 1.25 ppm: 0%
  mortality at 1.25 ppm: 0%
[4]; Table 10 evaluation, 2.5 ppm
  inhibition at 2.5 ppm: 100%
  mortality at 2.5 ppm: 100%

## OCCCC(F)=C(F)F [Compound 7, 4,5,5-trifluoro-4-penten-1-ol]
[1]; [5]
  pest or weed control at 2.5 ppm: 25%
[1]; [6]
  pest or weed control at 5 ppm: 44%
[1]; [7]
  pest or weed control at 10 ppm: 79%

## FC(F)=C(F)CCSc1nnc(-c2ccc(Cl)cc2)s1 [Compound 37, 2-(4-chlorophenyl)-5-(3,4,4-trifluoro-3-butenylthio)-1,3,4-thiadiazole]
[1]
  pest or weed control at 0.078 ppm: 0%
  pest or weed control at 0.156 ppm: 0%
  pest or weed control at 0.312 ppm: 0%
  pest or weed control at 0.625 ppm: 0%
[4]; Table 9 screen, 5 ppm
  inhibition at 5 ppm: 100%
  mortality at 5 ppm: 100%
[4]; Table 10 evaluation, 5 ppm
  mortality at 5 ppm: 100%
[4]; Table 10 evaluation, 1.25 ppm
  inhibition at 1.25 ppm: 100%
  mortality at 1.25 ppm: 100%
[4]; Table 10 evaluation, 2.5 ppm
  inhibition at 2.5 ppm: 100%
  mortality at 2.5 ppm: 100%

## O=C(OCCC(F)=C(F)F)C(F)(F)C(F)(F)F [Compound 19, (3,4,4-trifluoro-3-butenyl) pentafluoropropionate, mono diethyl etherate]
[1]; [5]
  pest or weed control at 2.5 ppm: 58%
[1]; [6]
  pest or weed control at 5 ppm: 75%
[1]; [7]
  pest or weed control at 10 ppm: 69%
